Assay results taken from patent US8815903B2, “Indole derivative and pharmacologically acceptable salt thereof” (Kissei Pharmaceutical Co., Ltd., priority 2011, dated 2014).

Molecular target: T1, rat EP1 receptor (Rattus norvegicus, UniProt P70597)
T1 construct: expressed in transfected cells
T1 sequence (P70597 1-405): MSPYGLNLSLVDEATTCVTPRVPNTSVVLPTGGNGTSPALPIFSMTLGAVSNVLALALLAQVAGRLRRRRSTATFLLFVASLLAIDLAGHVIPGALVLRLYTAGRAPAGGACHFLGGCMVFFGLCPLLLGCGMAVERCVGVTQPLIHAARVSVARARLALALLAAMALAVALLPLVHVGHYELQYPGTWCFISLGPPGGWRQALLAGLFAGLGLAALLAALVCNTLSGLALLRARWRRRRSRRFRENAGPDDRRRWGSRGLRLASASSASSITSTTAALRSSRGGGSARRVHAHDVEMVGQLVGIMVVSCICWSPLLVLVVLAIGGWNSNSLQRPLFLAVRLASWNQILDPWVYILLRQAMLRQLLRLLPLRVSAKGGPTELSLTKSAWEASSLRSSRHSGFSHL
Test: Test for confirmation of EP1 receptor antagonism (inhibition of PGE2-induced increase in intracellular calcium concentration)
Assay type: cell-based
Conditions: rat EP1 receptor-expressing COS-1 cells; prostaglandin E2 10 nM; fluorescent calcium indicator, FDSS 7000
Description: Test for Confirmation of EP1 Receptor Antagonism
(1) Preparation of Rat EP1 Expression Vector
Using Rat Kidney BD Marathon-Ready cDNA (Nippon Becton Dickinson Company, Ltd.) as a template, a forward primer shown in (SEQ ID NO:1), and a reverse primer shown in (SEQ ID NO:2), a first run of PCR was carried out using KOD-Plus-Ver 2.0 (Toyobo Co., Ltd.). Further, using this amplification product as a template, a forward primer shown in (SEQ ID NO:3), and a reverse primer shown in (SEQ ID NO:4), a second run of PCR was carried out in the same manner. The amplification product obtained by the second run of PCR was incorporated into a vector (pcDNA3.1 D/V5-His-TOPO (registered trademark), Invitrogen Japan K. K.). By a conventional method, the vector containing this amplification product was introduced to E. coli (One Shot TOP 10 Competent Cells, Invitrogen Corporation) to transform. This transformed E. coli was cultured in an LB agar medium for one day. After the culture, colonies were selected and cultured in an LB liquid medium containing 50 μg/mL of ampicillin. After the culture, the vector was purified using a QIAprep Spin Miniprep Kit (Qiagen K. K.). The base sequence of the insertion site of this vector (SEQ ID NO:5) was compared with the rat EP1 base sequence (Ptger1) registered as Accession No. NM_013100 in publicly-known database (NCBI), and as a result, they all matched except for a single base. Further, the amino acid sequence translated by the base sequence completely matched the amino acid sequence of the rat EP1 receptor registered as an NCBI Accession No. NP_037232. Therefore, it was confirmed that the cloned gene sequence was a base sequence of the rat EP1 receptor and the obtained amino acid sequence was that of the rat EP1 receptor. The pcDNA3.1 D/V5-His-TOPO (registered trademark) to which the nucleic acid shown in (SEQ ID NO:5) had been inserted was taken as a rat EP1-expressing vector.
(2) Preparation of Rat EP1 Receptor-Expressing Cells
COS-1 cells (Dainippon Sumitomo Pharma Co., Ltd.) were cultured until they reached confluence in an incubator at 37° C. under a 5% CO2 gas condition, using a D-MEM liquid medium (high glucose and L-glutamine contained, Invitrogen Corporation) to which a penicillin-streptomycin solution (Invitrogen Corporation, final concentration: 100 U/mL as benzylpenicillin; 100 μg/mL as streptomycin) as an antibiotic, MEM nonessential amino acids (Invitrogen Corporation, final concentration: 0.1 mM), and fetal calf serum (Sanko Junyaku Co., Ltd., final concentration: 10%) were added.
The cells that had reached confluence were stripped with 0.05% trypsin/0.53 mM EDTA.4Na, and resuspended in a D-MEM liquid medium (high glucose and L-glutamine contained, Invitrogen Corporation) to which an MEM nonessential amino acid (final concentration: 0.1 mM) and fetal calf serum (final concentration: 10%) were added. In each well of a Poly D-lysine-coated 96-well microplate (BD BioCoat (registered trademark), Nippon Becton Dickinson Company, Ltd.), this resuspended cell suspension culture was prepared to be 5×10^4 cells/well in 100 μL of the liquid medium, and 100 μL of the cell suspension was seeded on each well. After seeding, the cells were cultured in an incubator at 37° C. under a 5% CO2 gas condition. At a point when the cells for introduction of a rat EP1-expressing vector were adhered (about 2 hours after seeding), introduction of the rat EP1-expressing vector was carried out in the following order.
For introduction of the rat EP1-expressing vector, Lipofectamine 2000 (Invitrogen Japan K. K.) was used. The rat EP1-expressing vector was diluted with OPTI-MEM (registered trademark) I Reduced-Serum Medium (Invitrogen Japan K. K.) to 200 ng/25 μL/well, and at the same time, Lipofectamine 2000 (Invitrogen Japan K. K.) was also diluted with OPTI-MEM (registered trademark) I Reduced-Serum Medium (Invitrogen Japan K. K.) to 0.5 μL/25 μL/well, followed by incubation at room temperature for 5 minutes. […]

Structure (SMILES) | IC50
COc1cc2[nH]c(C(C)C)c(Cc3cccc(-c4nnn[nH]4)n3)c2cc1Cl [Example 17-4] | 27 nM
Cc1cc2[nH]c(-c3ccccc3)c(Cc3cccc(C(=O)NS(C)(=O)=O)n3)c2cc1C [Example 3-30] | 43 nM
CCS(=O)(=O)NC(=O)c1cccc(Cc2c(-c3ccsc3)[nH]c3cc(C)ccc23)n1 [Example 18-9] | 23 nM
Cc1ccc2c(Cc3cccc(C(=O)NS(C)(=O)=O)n3)c(-c3ccsc3)[nH]c2c1 [Example 3-12] | 27 nM
CCCS(=O)(=O)NC(=O)c1cccc(Cc2c(-c3ccccc3)[nH]c3cc(OC)ccc23)n1 [Example 3-4] | 39 nM
COc1ccc2c(Cc3cccc(-c4noc(=O)[nH]4)n3)c(C(C)(C)C)[nH]c2c1 [Example 12-2] | 43 nM
COc1ccc2c(Cc3cccc(-c4nnn[nH]4)c3)c(-c3ccccc3)[nH]c2c1 [Example 5-6] | 45 nM
Cc1ccc2c(Cc3cccc(C(=O)NC#N)n3)c(-c3ccccc3)[nH]c2c1 [Example 16-1] | 54 nM
COc1cc2[nH]c(C(C)(C)C)c(Cc3cccc(C(=O)NC#N)n3)c2cc1Cl [Example 16-5] | 46 nM
CCS(=O)(=O)NC(=O)c1cccc(Cc2c(-c3ccccc3)[nH]c3cc(C4CC4)ccc23)n1 [Example 3-33] | 66 nM
COc1ccc2c(Cc3cccc(/C=C/c4nnn[nH]4)n3)c(-c3ccccc3)[nH]c2c1 [Example 19, 6-Methoxy-2-phenyl-3-{6-[(E)-2-(1H-tetrazol-5-yl)vinyl]pyridine-2-ylmethyl}-1H-indole] | 34 nM
COc1cc2[nH]c(-c3ccccc3)c(Cc3cccc(C(=O)NS(=O)(=O)C4CC4)n3)c2cc1F [Example 18-4] | 35 nM
COc1cc2c(Cc3cccc(-c4nnn[nH]4)n3)c(C3(C)CC3)[nH]c2cc1Cl [Example 20-1, 6-chloro-5-methoxy-2-(1-methylcyclopropyl)-3-[6-(1H-tetrazol-5-yl)pyridin-2-ylmethyl]-1H-indole] | 27 nM
COc1ccc2c(Cc3cccc(C(=O)NS(=O)(=O)c4ccccc4)n3)c(C(C)(C)C)[nH]c2c1 [Example 3-11] | 17 nM
CCc1ccc2c(Cc3cccc(-c4nnn[nH]4)n3)c(C3(C)CC3)[nH]c2c1 [Example 20-2, 6-ethyl-2-(1-methylcyclopropyl)-3-[6-(1H-tetrazol-5-yl)pyridin-2-ylmethyl]-1H-indole] | 15 nM
CCS(=O)(=O)NC(=O)c1cccc(Cc2c(C(C)(C)C)[nH]c3cc(OC)c(Cl)cc23)n1 [Example 3-7] | 33 nM
COc1cc2[nH]c(-c3ccccc3)c(Cc3cccc(C(=O)NS(=O)(=O)C(C)C)n3)c2cc1F [Example 18-3] | 41 nM
CCS(=O)(=O)NC(=O)c1cccc(Cc2c(-c3ccccc3)[nH]c3cc(C)c(C)cc23)n1 [Example 3-31] | 47 nM
CCS(=O)(=O)NC(=O)c1cccc(Cc2c(-c3ccccc3)[nH]c3cc(Cl)ccc23)n1 [Example 3-24] | 58 nM
COc1ccc2c(Cc3cccc(C(=O)NS(=O)(=O)C(C)C)n3)c(-c3ccccc3)[nH]c2c1 [Example 3-13] | 27 nM
COc1ccc2c(Cc3cccc(-c4nnn[nH]4)n3)c(-c3ccc(F)cc3)[nH]c2c1 [Example 5-9] | 22 nM
Cc1ccc2c(Cc3cccc(C(=O)NC#N)n3)c(-c3ccsc3)[nH]c2c1 [Example 16-6] | 36 nM
COc1ccc2c(Cc3cccc(-c4nnn[nH]4)n3)c(-c3cncnc3)[nH]c2c1 [Example 23, 6-Methoxy-2-pyrimidin-5-yl-3-[6-(1H-tetrazol-5-yl)pyridin-2-ylmethyl]-1H-indole] | 11 nM

Structure (SMILES) | IC50
COc1ccc2c(Cc3cccc(-c4noc(=O)[nH]4)n3)c(-c3ccoc3)[nH]c2c1 [Example 12-1] | 23 nM
COc1ccc2c(Cc3cccc(-c4nnn[nH]4)n3)c(C3CCCCC3)[nH]c2c1 [Example 17-7] | 30 nM
CCCS(=O)(=O)NC(=O)c1cccc(Cc2c(-c3ccccc3)[nH]c3cc(OC)c(F)cc23)n1 [Example 18-5] | 32 nM
CS(=O)(=O)NC(=O)c1cccc(Cc2c(-c3ccccc3)[nH]c3cc(Cl)ccc23)n1 [Example 3-25] | 78 nM
COc1ccc2c(Cc3cccc(C(=O)NS(=O)(=O)c4ccccc4F)n3)c(C(C)(C)C)[nH]c2c1 [Example 18-13] | 40 nM
Cc1cc2[nH]c(-c3ccccc3)c(Cc3cccc(-c4nnn[nH]4)n3)c2cc1C [Example 17-3] | 20 nM
COc1cc2[nH]c(-c3ccccc3)c(Cc3cccc(-c4noc(=O)[nH]4)n3)c2cc1F [Example 12-5] | 46 nM
CC1(c2[nH]c3cc(C4CC4)ccc3c2Cc2cccc(-c3nnn[nH]3)n2)CC1 [Example 17-13, 6-cyclopropyl-2-(1-methylcyclopropyl)-3-[6-(1H-tetrazol-5-yl)pyridin-2-ylmethyl]-1H-indole] | 28 nM
CCS(=O)(=O)NC(=O)c1cccc(Cc2c(-c3csc(C)c3)[nH]c3cc(OC)ccc23)n1 [Example 3-21] | 86 nM
COc1ccc2c(Cc3cccc(C(=O)NS(=O)(=O)C4CC4)n3)c(-c3ccccc3)[nH]c2c1 [Example 3-10] | 47 nM
COc1ccc2c(Cc3cccc(C(=O)NS(C)(=O)=O)n3)c(-c3ccsc3)[nH]c2c1 [Example 1, N-Methanesulfonyl-6-(6-methoxy-2-thiophen-3-yl-1H-indol-3-ylmethyl)pyridine-2-carboxamide] | 99 nM
CCS(=O)(=O)NC(=O)c1cccc(Cc2c(-c3ccccc3)[nH]c3cc(OC)c(F)cc23)n1 [Example 3-32] | 51 nM
CCS(=O)(=O)NC(=O)c1cccc(Cc2c(-c3ccc(F)cc3)[nH]c3cc(OC)ccc23)n1 [Example 3-15] | 27 nM
Cc1ccc2c(Cc3cccc(-c4noc(=O)[nH]4)n3)c(-c3ccsc3)[nH]c2c1 [Example 12-9] | 34 nM
COc1ccc2c(Cc3cccc(-c4nnn[nH]4)n3)c(-c3csc(C)c3)[nH]c2c1 [Example 5-12] | 26 nM
COc1ccc2c(Cc3cccc(C(=O)NS(C)(=O)=O)n3)c(-c3ccc(F)cc3)[nH]c2c1 [Example 3-14] | 88 nM
COc1ccc2c(Cc3cccc(-c4nnn[nH]4)n3)c(-c3ccsc3)[nH]c2c1 [Example 5-4] | 12 nM
Cc1cc2[nH]c(-c3ccccc3)c(Cc3cccc(-c4noc(=O)[nH]4)n3)c2cc1C [Example 12-7] | 28 nM
COc1ccc2c(Cc3cccc(-c4nnn[nH]4)n3)c(C3CC3)[nH]c2c1 [Example 17-6] | 31 nM
COc1ccc2c(Cc3cccc(C(=O)NS(=O)(=O)c4ccccc4)n3)c(-c3ccccc3)[nH]c2c1 [Example 3-3] | 30 nM
CCS(=O)(=O)NC(=O)c1cccc(Cc2c(-c3ccccc3)[nH]c3cc(C)ccc23)n1 [Example 3-34] | 40 nM
Cc1ccc2c(Cc3cccc(-c4nnn[nH]4)n3)c(-c3ccoc3)[nH]c2c1 [Example 17-8] | 7.3 nM
